Assay results from US20090239939A1, “Combinations for introducing nucleic acids into cells” (priority 1999, published 2009).

Experiments:
[1] = tested on: human erythrocytes; experiment: Erythrocyte lysis assay; assay type: cell-based; details: 37° C., 1 h, citrate pH 5 versus HBS, FIG. 5
Description: The assay serves the examination of the ability of peptides to lyse natural membranes in a pH-dependent manner.
The erythrocytes used in this assay were obtained as follows: 10 ml of fresh blood were taken from volunteers and diluted immediately into 10 ml of Alsever's solution (Whaley 1985; Plank et al., 1996). Aliquots of 3 ml each were washed 3 times with the corresponding buffer (40 ml each of citrate or HBS; after addition of buffer, shaking, centrifugation at 2500×g and discarding of the supernatant). The concentration of the erythrocytes was determined with an “extinction coefficient” of 2.394×10^−8 ml/cells at 541 nm. For deriving the extinction coefficient, the cell count in an aliquot was determined using a Neubauer chamber followed by measuring the absorbance of this solution at 541 nm upon addition of 1 μl 1% Triton X-100.
Aliquots of INF7 and copolymer-coupled INF7 (P3INF7), respectively, were provided in column 1 of a 96-well plate in 150 μl 10 mM sodium citrate pH 5/150 mM NaCl and in HBS buffer, respectively (usually corresponding to […] peptide). […] Then, the plates were centrifuged at 2500×g, 150 μl each of the supernatant was transferred into a flat bottom 96-well plate and released hemoglobin was determined at 410 nm using an ELISA plate reader. […] 0% lysis was determined from untreated samples in column 12.

[2] = tested on: complement system; experiment: Complement activation assay (CH50)

## GLFEAIEGFIENGWEGMIDGWYGC [INF7]
[1]
  erythrocyte lysis activity: strong pH-dependent activity
[2]; FIG. 4B
  complement activation when incorporated in a polylysine-DNA complex: this complement activation disappears
[2]; substance itself incubated with human serum, FIG. 4
  complement activation (CH50 as percentage of CH50max): weak activator of complement
